Measurements published in patent publication US8664405B2, “Sulfonic acid salt compound of 4-carbamoyl-5-hydroxy-imidazole derivative” (Fujifilm Corporation, priority 2007, dated 2014).

Experiments:
[1] = Evaluation of the storage stability in an aqueous solution (UV-Vis spectra); assay type: physicochemical; settings: dilute aqueous solution, room temperature, after 60 days
Procedure: (Evaluation 2) Evaluation of the Storage Stability in an Aqueous Solution
SM-108 obtained in Example 1 and hydrochloric acid salt of SM-108 obtained in Example 3 were dissolved into water to dilute aqueous solutions. UV-Vis spectra of those solutions were recorded just after making solutions and after leaving at room temperature for 60 days.

[2] = Evaluation of the storage stability in crystalline state by visual observation; assay type: physicochemical; settings: autoclave at 120° C. under a saturated vapor of water for 30 minutes
Procedure: (Evaluation 1) Evaluation of the Storage Stability in Crystalline State by Visual Observation
SM-108 [2] obtained in Example 1 and benzensulfonic acid salt of SM-108 [5] obtained in Example 2 were placed in an autoclave at 120° C. under a saturated vapor of water for 30 minutes.

[3] = Storage stability (general statements); assay type: physicochemical; settings: solid; no test conditions given
[4] = clinical trial by Sumitomo Pharmaceuticals in 1980s; cited from earlier work

## NC(=O)c1nc[nH]c1O [SM-108, 4-Carbamoyl-5-hydroxyimidazole]
[1]
  change of UV-Vis absorption spectrum of aqueous solution: a broad absorption appeared in the visible-light region
[2]
  colour of the crystalline substance after treatment (visual observation): turned indigo-blue
[3]
  storage stability: poor storage stability
[4]
  clinical effect against MDS and CML: excellent effects

## NC(=O)c1nc[nH]c1O.O=S(=O)(O)c1ccccc1 [benzensulfonic acid salt of SM-108 [5], benzenesulfonic acid salt of SM-108]
[2]
  colour of the crystalline substance after treatment (visual observation): remained colorless

## Cl.NC(=O)c1nc[nH]c1O [hydrochloric acid salt of SM-108]
[1]
  change of UV-Vis absorption spectrum of aqueous solution: did not change at all
  colour of aqueous solution: remained colorless
